One assay has as its target T1, WT Rv0183 (BCG_0220) (Mycobacterium tuberculosis, UniProt O07427).
T1 construct: poly-histidine (pET28a vector-encoded) (N); made in house; host or cells: E. coli SHuffle T7 (K12), pET28a
Format: biochemical. As to conditions: 10 μM WT Rv0183, 5 μg compound, 37 °C, 1 h.

Another assay concerns the target Rv0183-VAAQD137D (Mycobacterium tuberculosis, UniProt O07427, DEL137-140). Format: biochemical, M. bovis BCG.
A further assay deals with Rv0183-S172P (Mycobacterium tuberculosis, UniProt O07427, S172P). Format: biochemical, M. bovis BCG.
Assay [1] concerns Mtb clinical isolate 14231. Briefly: microbe, parasite or virus in culture. As to conditions: Mycobacterium tuberculosis. Format: cell-based.
The test system of assay [2] is M. bovis BCG HTB-04 mutant 2 (BCG_0220-S172P). Format: cell-based.
For assay [3], the system named is Mtb clinical isolate 12611. As to the kind of experiment: microbe, parasite or virus in culture. Format: cell-based. The note with it: Mycobacterium tuberculosis.
The next assay relates to M. bovis BCG. Format: cell-based.

Each structure is given as a SMILES string. In brackets after ≈: the same amount, converted by molar mass. Several values for one entry are separate records, joined by “and”; a condition that tells them apart may be missing. Equal values may be shown once. Entries after “also recorded” stand apart in the source; their conditions may differ.

Usually IC50 stands for the point on the concentration scale where inhibition reaches its midpoint. A low value points to inhibition by little substance.

In the case of `O=C(O)c1cc(O)c2c(c1)C(=O)c1cccc(O)c1C2=O` [Rhein, rhein], the “enzyme activity on compound (TLC)” value at WT Rv0183 (BCG_0220), on Rv0183-VAAQD137D and on Rv0183-S172P was “no apparent activity” throughout.

Regarding `CC(=O)Oc1cccc2c1C(=O)c1c(OC(C)=O)cc(C(=O)OCCCCCl)cc1C2=O` [HTB-04], the “enzyme activity on compound (TLC)” value at WT Rv0183 (BCG_0220) is on record as “partially hydrolyzed to rhein; also recorded: inconclusive”. The values for the MIC in assay [1] and in assay [3] were 2.04 µM (≈ 0.936 µg/mL) and 3.66 µM (≈ 1.68 µg/mL), respectively. Further, the IC50 in assay [2] is 6.23 µM and 3.51 µM. In the assay with M. bovis BCG, the frequency of resistance is reported as 85 × 10^-8.

With `NNC(=O)c1ccncc1` [INH, isoniazid, reference compound], the MIC in assay [1] is > 292 µM; in assay [3], 142 µM (≈ 19.5 µg/mL).

Take `O=C(OCCCCCl)c1cc(O)c2c(c1)C(=O)c1cccc(O)c1C2=O` [HTB-03]: the “enzyme activity on compound (TLC)” value at WT Rv0183 (BCG_0220) is “converted to rhein”; on Rv0183-VAAQD137D, “minimal”; on Rv0183-S172P it was “no activity”. The MIC in assay [1] came to 2.4 µM (≈ 0.899 µg/mL); in assay [3] it was 2.64 µM (≈ 0.989 µg/mL). Besides, the frequency of resistance with M. bovis BCG was 83 × 10^-8 and 100 × 10^-8.

Source of the values: paper PMC7389528, “Anti-tubercular derivatives of rhein require activation by the monoglyceride lipase Rv0183” (The Cell Surface, 2020).
